In PMC5886804 (Nature, 2018):

How the values were obtained:
[1] = target: MmTPC1 Leu11Ala/Ile12Ala (plasma membrane-targeting, considered as the wild type channel) (Mus musculus, UniProt Q9EQJ0, I12A/L11A/R540Q); assay: inside-out patch clamp, HEK293 cells; assay type: cell-based
[2] = target: Mouse TPC1 (two-pore channel 1) (mouse) (UniProt Q9EQJ0); assay: cryo-EM structure

Row | EC50 [1] [µM] | stoichiometry N [2] | Molecule
1 | ~0.145 |  | CCCCCCCC(=O)OC[C@H](COP(=O)(O)O[C@@H]1[C@H](O)[C@H](OP(=O)(O)O)[C@@H](O)[C@H](OP(=O)(O)O)[C@H]1O)OC(=O)CCCCCCC [PtdIns(3,5)P2]
2 |  | 2 | Mouse TPC1 (two-pore channel 1) (from UniProt Q9EQJ0-1 1-817) (natural protein)
